Assay results: patent US20120225852A1, “USE OF STEROID COMPOUNDS” (priority 2009, published 2012)

Key:
Naive CD4+ T cells = Naive CD4+ T cells under Th17 cell polarizing conditions; type: cell-based
[1] = test system: ongoing EAE in recipient mice; assay: Adoptive transfer of CD4+ T cells from treated EAE donors into recipients with ongoing EAE; type: in vivo
[2] = test system: Draining lymph node cells from mice induced to develop EAE; assay: Ex vivo response of draining lymph node cells to MOG35-55, mice treated from EAE induction; type: in vivo, C57BL/6 mice; conditions: treatment from EAE induction
Excerpt: Acute EAE was induced in C57BL/6 mice by immunizing them against the pathogenic myelin oligodendrocyte glycoprotein (MOG) peptide (amino acids 35-55). […] Mice were monitored daily in a blinded fashion for clinical symptoms (paralysis). Tissues (brain, spinal cord, DLNs) were collected in order to perform histological evaluation (staining with H&E on brain and spinal cord sections) and ex vivo cultures for measurement of T cell responses and cytokine release.
Also tested were the proliferative response and cytokine secretion of lymphoid cells (T cells) to MOG35-55 peptide from the mice that had been induced to develop EAE. […] In addition, the secretion of the inflammatory cytokine IL-17 was increased (FIG. 9d), but its absolute increase was extremely low in comparison to the IFN-γ increase.

## C[C@]12CC[C@H](O)CC1=CC[C@@H]1[C@@H]2CC[C@]2(C)C(=O)CC[C@@H]12 [DHEA, dehydroepiandrosterone]
Naive CD4+ T cells; among Th17 differentiating cells, 4 days, FIG. 37
  number of CD4+ IL-10-secreting T cells: significant increase
Naive CD4+ T cells; and rIL-6, 4 days, vs RPMI, FIG. 36
  number of CD4+ IL-17-secreting T cells: increase
[1]; CD4+ T cell transfer into recipients with ongoing EAE, FIGS. 28 and 29
  mean maximum EAE score: significant decrease
[1]; DLN cells and splenocytes of recipients, FIG. 30
  proliferation to MOG35-55 ex vivo: significantly decreased
[2]; overall conclusion
  pathogenic immune response: significantly suppressed
[2]; FIG. 9a
  proliferation to MOG35-55 peptide: significantly decreased
[2]; FIG. 9b
  amounts of IFN-γ produced: substantially increased
[2]; FIG. 9c
  amounts of IL-10 produced: substantially increased
[2]; absolute increase extremely low compared to IFN-γ, FIG. 9d
  secretion of IL-17: increased
